From paper PMC9866191, “Novel 9-Benzylaminoacridine Derivatives as Dual Inhibitors of Phosphodiesterase 5 and Topoisomerase II for the Treatment of Colon Cancer” (Molecules, 2023) come the findings set out here.

The target in one assay is T1, human DNA Topo II (Homo sapiens, UniProt P11388).
T1 construct: purchased Topogen, Columbus, OH, USA
In words: Topo II-mediated relaxation of supercoiled pHOT1 plasmid DNA. The class given is biochemical. Conditions: for DNA band pattern in Topo II relaxation assay: at 1 and 5 µM doses, similar to doxorubicin. The protocol: Consequently, the effects of the synthesized compounds on Topo II activity were evaluated with a cell-free assay using a purified human DNA Topo II-protein-mediated relaxation of the negatively supercoiled pHOT1 plasmid DNA [40]. […] Two Topo II inhibitors (doxorubicin and etoposide) were used as positive controls.
The reaction was terminated by adding 2 μL of 10% SDS, followed by 2.5 μL of proteinase K (50 μg/mL) to digest the bound protein. The system was incubated at 37 °C for 15 min. The DNA product was finally analyzed using electrophoresis on a vertical 1.5% agarose gel at 2 volts/cm in 1 × TAE buffer and photographed using the Eagle Eye II system (Stratagene, La Jolla, CA, USA).
Figure 2 Effects of compounds on topoisomerase II activity. Effects on Topo II-mediated relaxation of supercoiled pHOT1 plasmid DNA in a cell-free system. Positive control: etoposide (10 µM); doxorubicin (5 µM) used as Topo II poison (induction of linear DNA); DNA relaxation: plasmid DNA + topo IIα + solvent control. Nick, nicked DNA; Sc, supercoiled DNA; Lin, linear DNA.

Assay [1] relates to HCT-116 cells. In words: Annexin-V/PI apoptosis assay. The class given is cell-based, human. Conditions: 10 µM, 24 h. The protocol: For the same set of compounds, the apoptosis-inducing effects in HCT-116 cells were assessed using Annexin-V/PI double staining at 10 µM (Figure 3).
The number of apoptotic/necrotic cells was analyzed using flow cytometry following the manufacturer’s protocol. Markers were assessed using a FACS-Caliburflow cytometer (Beckman Coulter, Taipei, Taiwan) and analyzed using WinMDI 2.8 software.
(§1) Figure 3 Apoptosis induction and cell cycle effects of compounds in HCT-116 cells. (A) The apoptotic population of HCT-116 cells was analyzed using flow cytometry after treatment with 10 µM of the test compound for 24 h followed by Annexin V/propidium iodide (PI) staining. (B) After treatment with compound concentrations of 10 µM for 24 h, cells were fixed, stained with propidium iodide (PI), and analyzed for cell cycle distribution. Results are expressed as the means ± SD from three independent experiments (* p < 0.05 and ** p < 0.01 *** p < 0.001, control versus compound).

The subject of assay [2] is HCT-116 cells. In words: Cell cycle analysis (PI, flow cytometry). Conditions: 10 µM, 24 h, PI staining. Format: cell-based, human. The protocol: To analyze cell cycle changes, cells permeated at 1 × 10^6 × cells/mL were trypsinized and diluted and then fixed in 70% ethanol at 4 °C. Cell cycle arrest in HCT-116 cells following compound exposure was accomplished using propidium iodide (Sigma-Aldrich, St. Louis, MI, USA). The markers were then assessed using a FACS-Caliburflow cytometer (Beckman Coulter, Taipei, Taiwan) and analyzed using WinMDI software. […]
as §1

A further assay concerns CCRF-CEM. Nature of the assay: NCI-60 one-dose screen. Format: cell-based. The conditions noted are these: Homo sapiens, Leukemia panel, single dose 10^−5 M, read-out: Growth inhibition %.
For a further assay, the system named is SF-268. Nature of the assay: NCI-60 one-dose screen. Format: cell-based. Conditions: Homo sapiens; SF-268, CNS Cancer panel; single dose 10^−5 M; read-out: Growth inhibition %.
The test system of the next assay is IGROV1. In words: NCI-60 one-dose screen. The class given is cell-based. The conditions noted are these: Homo sapiens, IGROV-1; IGROV1, Ovarian Cancer panel; single dose 10^−5 M; read-out: Growth inhibition %.

Entries after “also recorded” stand apart in the source; their conditions may differ.

T1 sequence (P11388 whole entry): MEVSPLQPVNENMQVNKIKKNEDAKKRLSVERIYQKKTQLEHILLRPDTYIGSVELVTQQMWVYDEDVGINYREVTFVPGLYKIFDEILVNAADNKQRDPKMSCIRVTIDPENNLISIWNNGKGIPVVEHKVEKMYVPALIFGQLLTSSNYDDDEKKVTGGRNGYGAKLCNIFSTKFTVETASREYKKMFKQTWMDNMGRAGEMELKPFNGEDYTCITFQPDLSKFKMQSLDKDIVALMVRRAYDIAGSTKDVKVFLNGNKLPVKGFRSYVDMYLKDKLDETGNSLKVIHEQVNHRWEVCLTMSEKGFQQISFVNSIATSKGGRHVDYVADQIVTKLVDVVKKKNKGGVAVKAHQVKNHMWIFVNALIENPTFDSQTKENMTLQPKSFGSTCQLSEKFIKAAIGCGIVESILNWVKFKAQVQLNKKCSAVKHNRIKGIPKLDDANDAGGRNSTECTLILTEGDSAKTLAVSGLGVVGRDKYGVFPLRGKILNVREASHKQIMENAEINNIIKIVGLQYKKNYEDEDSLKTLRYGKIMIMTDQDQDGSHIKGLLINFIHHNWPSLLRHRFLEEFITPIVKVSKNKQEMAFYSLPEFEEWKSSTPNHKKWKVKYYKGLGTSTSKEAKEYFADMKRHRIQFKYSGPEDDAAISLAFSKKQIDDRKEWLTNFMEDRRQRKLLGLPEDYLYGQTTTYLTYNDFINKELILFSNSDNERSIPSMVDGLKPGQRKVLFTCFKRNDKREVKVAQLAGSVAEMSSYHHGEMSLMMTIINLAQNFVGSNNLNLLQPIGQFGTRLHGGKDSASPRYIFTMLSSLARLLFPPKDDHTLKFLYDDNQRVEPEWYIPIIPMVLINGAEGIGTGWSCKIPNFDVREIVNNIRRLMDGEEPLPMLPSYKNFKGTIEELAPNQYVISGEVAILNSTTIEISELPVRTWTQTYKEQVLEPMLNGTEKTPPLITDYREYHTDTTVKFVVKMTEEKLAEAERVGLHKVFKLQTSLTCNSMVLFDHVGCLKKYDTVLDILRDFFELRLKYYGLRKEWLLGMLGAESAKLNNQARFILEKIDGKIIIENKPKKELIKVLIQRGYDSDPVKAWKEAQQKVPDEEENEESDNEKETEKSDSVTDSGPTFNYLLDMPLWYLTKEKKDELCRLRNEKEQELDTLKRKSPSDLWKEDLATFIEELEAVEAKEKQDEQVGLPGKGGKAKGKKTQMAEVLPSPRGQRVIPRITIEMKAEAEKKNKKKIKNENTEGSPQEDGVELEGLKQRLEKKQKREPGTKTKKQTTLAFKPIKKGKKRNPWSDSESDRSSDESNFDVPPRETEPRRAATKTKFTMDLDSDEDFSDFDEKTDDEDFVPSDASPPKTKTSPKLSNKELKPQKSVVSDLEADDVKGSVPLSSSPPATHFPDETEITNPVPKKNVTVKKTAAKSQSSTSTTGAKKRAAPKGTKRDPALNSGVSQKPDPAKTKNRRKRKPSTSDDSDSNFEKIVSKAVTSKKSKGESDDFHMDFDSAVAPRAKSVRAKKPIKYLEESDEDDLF

Take `c1coc(CNc2c3ccccc3nc3ccccc23)c1` [Compound 14, Acridin-9-yl-furan-2-ylmethyl-amine]: the “DNA band pattern in Topo II relaxation assay” value (“DNA band pattern” below) on human DNA Topo II is listed as “larger base pair band than nicked DNA”. The induction of apoptosis with HCT-116 cells [1] is given as 20%–50%. In addition, the “effect on cell cycle” value in the assay on HCT-116 cells [2] is given as “arrested the cell cycle in the S phase”. The inhibition at 10 µM was found to be 42.9% in the assay with CCRF-CEM, 14.3% in the assay with SF-268 and 38.1% in the assay on IGROV1.

For `Fc1ccc(CNc2c3ccccc3nc3ccccc23)cc1F` [Compound 22, Acridin-9-yl-(3,4-difluorobenzyl)-amine], the “DNA band pattern” value on human DNA Topo II is “larger base pair band than nicked DNA”. In addition, in the assay with HCT-116 cells [1], the induction of apoptosis entry is given as “less than 20%”. Also, in the assay on HCT-116 cells [2], the “effect on cell cycle” value was “cell cycle arrest in the G2/M phase”. Besides, the figures for the inhibition at 10 µM with CCRF-CEM, in the assay with SF-268 and in the assay with IGROV1 were 58.5%, 42.8% and 77.2%, respectively.

On to `c1csc(-c2ccc(CNc3c4ccccc4nc4ccccc34)cc2)c1` [Compound 24, Acridin-9-yl-(4-thiophen-2-yl-benzyl)-amine], for which, on human DNA Topo II, the “DNA band pattern” value is listed as “larger base pair band than nicked DNA”. Also, in the assay with HCT-116 cells [1], the induction of apoptosis is reported as 20%–50%. Further, the “effect on cell cycle” value with HCT-116 cells [2] is listed as “arrested the cell cycle in the S phase”. Moreover, the values for the inhibition at 10 µM with CCRF-CEM, with SF-268 and in the assay with IGROV1 were 97.4%, 37.1% and 90%, respectively.

With `Fc1ccc(CNc2c3ccccc3nc3ccccc23)c(F)c1` [Compound 21, Acridin-9-yl-(2,4-difluorobenzyl)-amine], the “DNA band pattern” value at human DNA Topo II was “larger base pair band than nicked DNA”. Further, the induction of apoptosis result in the assay on HCT-116 cells [1] was “less than 20%”. Also, the “effect on cell cycle” value with HCT-116 cells [2] is “cell cycle arrest in the G2/M phase”. Besides, the figures for the inhibition at 10 µM in the assay with CCRF-CEM, in the assay on SF-268 and in the assay with IGROV1 were 46.1%, 31.4% and 64.3%, respectively.

Turning to `COc1ccc(CNc2c3ccccc3nc3ccccc23)cc1OC` [Compound 18, Acridin-9-yl-(3,4-dimethoxybenzyl)-amine], the “DNA band pattern” value on human DNA Topo II is “larger base pair band than nicked DNA”. In the assay with HCT-116 cells [1], the induction of apoptosis is recorded as 20%–50%. The “effect on cell cycle” value in the assay with HCT-116 cells [2] was “increased the number of cells in the S phase and G2/M phase”. In addition, the values for the inhibition at 10 µM with CCRF-CEM, in the assay on SF-268 and in the assay on IGROV1 were 69.5%, 60.4% and 89.1%, respectively.

Consider `COc1ccc2nc3ccccc3c(NCc3ccc(F)cc3)c2c1` [Compound 28, (4-Fluorobenzyl)-(2-methoxyacridin-9-yl)-amine], for which the “concentration at which Topo II inhibition (increase of supercoiled DNA) is shown” value at human DNA Topo II (cell-free relaxation assay, gel) was 1 µM. Further, in the assay with HCT-116 cells [1], the induction of apoptosis entry is on record as “less than 20%”. The “effect on cell cycle” value in the assay on HCT-116 cells [2] is “increased the number of cells in the S phase and G2/M phase”. In addition, the inhibition at 10 µM in the assay on CCRF-CEM worked out at 81.7%; in the assay on SF-268, 65.4%; with IGROV1, 91.8%.

Turning to `Cc1ccc2nc3ccccc3c(NCc3ccccc3)c2c1` [Compound 30, Benzyl-(2-methylacridin-9-yl)-amine], the “DNA band pattern” value at human DNA Topo II is given as “larger base pair band than nicked DNA”. Further, the induction of apoptosis result in the assay on HCT-116 cells [1] is listed as “less than 20%”. Further, the “effect on cell cycle” value with HCT-116 cells [2] is on record as “cell cycle arrest in the G2/M phase”. Also, the inhibition at 10 µM in the assay on CCRF-CEM was 65.1%; with SF-268 it was 31%; in the assay with IGROV1, 84.2%.

Take `COc1ccc2nc3ccccc3c(NCc3ccccc3)c2c1` [Compound 25, Benzyl-(2-methoxyacridin-9-yl)-amine]: the “DNA band pattern” value on human DNA Topo II was “larger base pair band than nicked DNA”. The induction of apoptosis in the assay on HCT-116 cells [1] is given as 20%–50%. For the same compound, in the assay with HCT-116 cells [2], the “effect on cell cycle” value was “cell cycle arrest in the G2/M phase; also recorded: increased the number of cells in the S phase and G2/M phase”. Besides, the inhibition at 10 µM was found to be 66.6% in the assay on CCRF-CEM, 55.8% in the assay on SF-268 and 83.6% in the assay on IGROV1.

As to `Fc1cccc(CNc2c3ccccc3nc3ccccc23)c1F` [Compound 20, Acridin-9-yl-(2,3-difluorobenzyl)-amine], the “DNA band pattern” value on human DNA Topo II is on record as “larger base pair band than nicked DNA”. The induction of apoptosis with HCT-116 cells [1] is 20%–50%. Further, the “effect on cell cycle” value in the assay with HCT-116 cells [2] was “cell cycle arrest in the S phase and reduced the percentage of cells in the G2/M phase”. The inhibition at 10 µM in the assay on CCRF-CEM was determined as 37.6%; in the assay with SF-268 it was 16.6%; in the assay with IGROV1, 47.3%.

As for `Cc1ccc2nc3ccccc3c(NCc3ccc(Cl)cc3)c2c1` [Compound 31, (4-Chlorobenzyl)-(2-methyl-acridin-9-yl)-amine], the “DNA band pattern” value at human DNA Topo II is “larger base pair band than nicked DNA”. The induction of apoptosis in the assay on HCT-116 cells [1] was 20%–50%. Besides, the “effect on cell cycle” value with HCT-116 cells [2] is “arrested the cell cycle in the S phase”. The inhibition at 10 µM amounted to 81.8% in the assay on CCRF-CEM, 20.9% with SF-268 and 72.9% in the assay with IGROV1.

The term inhibition denotes the drop in the measured response relative to a control, in per cent.
